Measurements as given in PubChem BioAssay (NCI).
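Assay format: 96-well plates, 48-hour exposure. TGI: total growth inhibition.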

Legend:
Test in all cases: NCI-60 cell line screen, 48 h
BT-549 breast = test system: BT-549 breast
A498 renal = test system: A498 renal
M14 melanoma = test system: M14 melanoma
HOP-92 NSCLC = test system: HOP-92 NSCLC
HL-60(TB) leukemia = test system: HL-60(TB) leukemia
MDA-MB-435 = test system: MDA-MB-435
SW-620 colon = test system: SW-620 colon
786-0 renal = test system: 786-0 renal
CCRF-CEM leukemia = test system: CCRF-CEM leukemia
SK-OV-3 ovarian = test system: SK-OV-3 ovarian
UO-31 renal = test system: UO-31 renal
COLO 205 colon = test system: COLO 205 colon
TK-10 renal = test system: TK-10 renal
SF-539 CNS = test system: SF-539 CNS
MDA-MB-231 breast = test system: MDA-MB-231 breast
UACC-257 melanoma = test system: UACC-257 melanoma
MDA-N = test system: MDA-N
NCI/ADR-RES ovarian = test system: NCI/ADR-RES ovarian
SF-268 CNS = test system: SF-268 CNS
NCI-H226 lung = test system: NCI-H226 lung
HT29 colon = test system: HT29 colon
HCT-15 colon = test system: HCT-15 colon
SK-MEL-5 melanoma = test system: SK-MEL-5 melanoma
SNB-19 CNS = test system: SNB-19 CNS
PC-3 prostate = test system: PC-3 prostate
SN12C renal = test system: SN12C renal
SK-MEL-2 melanoma = test system: SK-MEL-2 melanoma
CAKI-1 renal = test system: CAKI-1 renal
RXF 393 renal = test system: RXF 393 renal
MOLT-4 leukemia = test system: MOLT-4 leukemia
MALME-3M melanoma = test system: MALME-3M melanoma
HCC-2998 colon = test system: HCC-2998 colon
HCT-116 colon = test system: HCT-116 colon
OVCAR-4 ovarian = test system: OVCAR-4 ovarian
ACHN renal = test system: ACHN renal
NCI-H23 lung = test system: NCI-H23 lung
UACC-62 melanoma = test system: UACC-62 melanoma
MCF7 breast = test system: MCF7 breast
OVCAR-8 ovarian = test system: OVCAR-8 ovarian
SNB-75 CNS = test system: SNB-75 CNS
HS 578T breast = test system: HS 578T breast
SF-295 CNS = test system: SF-295 CNS
OVCAR-5 ovarian = test system: OVCAR-5 ovarian
OVCAR-3 ovarian = test system: OVCAR-3 ovarian
U251 CNS = test system: U251 CNS
SR leukemia = test system: SR leukemia
DU-145 prostate = test system: DU-145 prostate
A549 NSCLC = test system: A549 NSCLC
SK-MEL-28 melanoma = test system: SK-MEL-28 melanoma
K-562 leukemia = test system: K-562 leukemia
KM12 colon = test system: KM12 colon
IGROV1 ovarian = test system: IGROV1 ovarian
EKVX NSCLC = test system: EKVX NSCLC
NCI-H460 lung = test system: NCI-H460 lung
NCI-H522 lung = test system: NCI-H522 lung
RPMI-8226 leukemia = test system: RPMI-8226 leukemia
T-47D breast = test system: T-47D breast
LOX IMVI melanoma = test system: LOX IMVI melanoma
HOP-62 NSCLC = test system: HOP-62 NSCLC

Cc1c(S(=O)(=O)c2ccccc2)c(N)n(Cc2ccccc2)c1C
TGI (BT-549 breast): > 100 µM | TGI (A498 renal): > 100 µM | TGI (M14 melanoma): > 100 µM | TGI (HOP-92 NSCLC): > 100 µM | TGI (HL-60(TB) leukemia): > 100 µM | TGI (MDA-MB-435): > 100 µM | TGI (SW-620 colon): > 100 µM | TGI (786-0 renal): > 100 µM | TGI (CCRF-CEM leukemia): > 100 µM | TGI (SK-OV-3 ovarian): > 100 µM | TGI (UO-31 renal): > 100 µM | TGI (COLO 205 colon): > 100 µM | TGI (TK-10 renal): > 100 µM | TGI (SF-539 CNS): > 100 µM | TGI (MDA-MB-231 breast): > 100 µM | TGI (UACC-257 melanoma): > 100 µM | TGI (MDA-N): > 100 µM | TGI (NCI/ADR-RES ovarian): > 100 µM | TGI (SF-268 CNS): > 100 µM | TGI (NCI-H226 lung): > 100 µM | TGI (HT29 colon): > 100 µM | TGI (HCT-15 colon): > 100 µM | TGI (SK-MEL-5 melanoma): > 100 µM | TGI (SNB-19 CNS): > 100 µM | TGI (PC-3 prostate): > 100 µM | TGI (SN12C renal): > 100 µM | TGI (SK-MEL-2 melanoma): > 100 µM | TGI (CAKI-1 renal): > 100 µM | TGI (RXF 393 renal): > 100 µM | TGI (MOLT-4 leukemia): > 100 µM | TGI (MALME-3M melanoma): > 100 µM | TGI (HCC-2998 colon): > 100 µM | TGI (HCT-116 colon): > 100 µM | TGI (OVCAR-4 ovarian): > 100 µM | TGI (ACHN renal): > 100 µM | TGI (NCI-H23 lung): > 100 µM | TGI (UACC-62 melanoma): > 100 µM | TGI (MCF7 breast): > 100 µM | TGI (OVCAR-8 ovarian): > 100 µM | TGI (SNB-75 CNS): > 100 µM | TGI (HS 578T breast): > 100 µM | TGI (SF-295 CNS): > 100 µM | TGI (OVCAR-5 ovarian): > 100 µM | TGI (OVCAR-3 ovarian): > 100 µM | TGI (U251 CNS): > 100 µM | TGI (SR leukemia): > 100 µM | TGI (DU-145 prostate): > 100 µM | TGI (A549 NSCLC): > 100 µM | TGI (SK-MEL-28 melanoma): > 100 µM | TGI (K-562 leukemia): > 100 µM | TGI (KM12 colon): > 100 µM | TGI (IGROV1 ovarian): > 100 µM | TGI (EKVX NSCLC): > 100 µM | TGI (NCI-H460 lung): > 100 µM | TGI (NCI-H522 lung): > 100 µM | TGI (RPMI-8226 leukemia): > 100 µM

Cc1cn(C2C=CC(COP(=O)(OCC3=CC(=O)c4ccccc4C3=O)N(C)CCCCCl)O2)c(=O)[nH]c1=O (configuration not stated)
TGI (M14 melanoma): 2.84 µM | TGI (HOP-92 NSCLC): 20.9 µM | TGI (HL-60(TB) leukemia): 4.41 µM | TGI (T-47D breast): 9.26 µM | TGI (MDA-MB-435): 3.35 µM | TGI (SW-620 colon): 29.3 µM | TGI (786-0 renal): 25.3 µM | TGI (CCRF-CEM leukemia): 11.9 µM | TGI (SK-OV-3 ovarian): 23 µM | TGI (UO-31 renal): 25.4 µM | TGI (COLO 205 colon): 10.9 µM | TGI (TK-10 renal): 36.5 µM | TGI (SF-539 CNS): 25.8 µM | TGI (MDA-MB-231 breast): 25.5 µM | TGI (UACC-257 melanoma): 13.9 µM | TGI (MDA-N): 4.22 µM | TGI (NCI/ADR-RES ovarian): 36.2 µM | TGI (SF-268 CNS): 24.4 µM | TGI (NCI-H226 lung): 25 µM | TGI (HT29 colon): 29.4 µM | TGI (HCT-15 colon): 20.9 µM | TGI (SK-MEL-5 melanoma): 2.28 µM | TGI (SNB-19 CNS): 25.6 µM | TGI (PC-3 prostate): 24.5 µM | TGI (SN12C renal): 23.9 µM | TGI (SK-MEL-2 melanoma): 27.2 µM | TGI (CAKI-1 renal): 25.9 µM | TGI (RXF 393 renal): 15.8 µM | TGI (MOLT-4 leukemia): 0.769 µM | TGI (LOX IMVI melanoma): 8.66 µM | TGI (MALME-3M melanoma): 0.982 µM | TGI (HCC-2998 colon): 4.42 µM | TGI (HCT-116 colon): 26.9 µM | TGI (OVCAR-4 ovarian): 23.2 µM | TGI (ACHN renal): 26.4 µM | TGI (NCI-H23 lung): 6.49 µM | TGI (UACC-62 melanoma): 14.3 µM | TGI (MCF7 breast): 20.5 µM | TGI (OVCAR-8 ovarian): 26.6 µM | TGI (SNB-75 CNS): 11.9 µM | TGI (HS 578T breast): 18.6 µM | TGI (SF-295 CNS): 11.3 µM | TGI (OVCAR-5 ovarian): 27.1 µM | TGI (OVCAR-3 ovarian): 19.1 µM | TGI (U251 CNS): 17.7 µM | TGI (SR leukemia): 2.05 µM | TGI (DU-145 prostate): 3.06 µM | TGI (A549 NSCLC): 2.97 µM | TGI (SK-MEL-28 melanoma): 18.2 µM | TGI (HOP-62 NSCLC): 23.9 µM | TGI (K-562 leukemia): 21.1 µM | TGI (KM12 colon): 28.7 µM | TGI (IGROV1 ovarian): 22.4 µM | TGI (NCI-H460 lung): 11.2 µM | TGI (NCI-H522 lung): 29.4 µM | TGI (RPMI-8226 leukemia): 20.8 µM
